This is an account of results in patent US4335213A (priority 1979, dated 1982).

Where two headings read alike, the source gives them in different places.

The subject of test [1] is galactose oxidase. Format: biochemical, Gibberella fujikuroi Y-530929. To be noted: 25° C., pH 7.0.
In test [2] the test system is galactose oxidase. Kind of test: Substrate specificity of galactose oxidase (quinoneimine colorimetric assay).

The molecule `[N-]=[N+]=[N-].[Na+]` [NaN3] displayed an Inhibition rate with galactose oxidase [1] of 94%.
Turning to `OC[C@H]1O[C@H](OC[C@H]2O[C@H](O[C@]3(CO)O[C@H](CO)[C@@H](O)[C@@H]3O)[C@H](O)[C@@H](O)[C@@H]2O)[C@H](O)[C@@H](O)[C@H]1O` [raffinose], the “action of the enzyme on the substrate” value in the test with galactose oxidase [2] was “acts on”.
Molecule `O=C(O)CN(CCN(CC(=O)O)CC(=O)O)CC(=O)O` [EDTA, ethylenediaminetetraacetic acid] gave an Inhibition rate in the test on galactose oxidase [1] (inhibitor 10^-3 M) of 52%.
Take `O=[N+]([O-])[O-].[Ag+]` [AgNO3]: in the test on galactose oxidase [1], the Inhibition rate amounted to 100%.
As to `c1cnc2c(c1)ccc1cccnc12` [o-phenanthroline], in the test on galactose oxidase [1] (inhibitor 10^-3 M), the Inhibition rate is reported as 68%.
As for `O=C(CO)CO` [dihydroxyacetone], the “action of the enzyme on the substrate” value in the test with galactose oxidase [2] is “acts on”.
For the molecule `O=C(O)c1cc[c]([Hg][Cl])cc1` [PCMB, parachloromercurybenzoate], the Inhibition rate in the test on galactose oxidase [1] is reported as 57%.
For `OC[C@H]1O[C@H](OC[C@H]2OC(O)[C@H](O)[C@@H](O)[C@@H]2O)[C@H](O)[C@@H](O)[C@H]1O` (stereo partly drawn) [melibiose], the “action of the enzyme on the substrate” value in the test on galactose oxidase [2] is on record as “acts on”.
Consider `NO` [NH2 OH], for which the Inhibition rate in the test on galactose oxidase [1] was determined as 100%.
